{"source": "paper PMC5218480", "about": "(PLoS ONE, 2017)", "test_system": "MV-4-11 cells", "experiment": "Gene expression microarray analysis (Affymetrix PrimeView) and GSEA", "type": "cell-based, human", "parameters": "RFU PODN (11730768_x_at) / Fold change /veh PODN (11730768_x_at) / RFU LINC00158 (11744669_a_at) / Fold change /veh LINC00158 (11744669_a_at) / RFU DUSP10 (11751237_a_at) / Fold change /veh DUSP10 (11751237_a_at) / RFU ID3 (11757404_x_at) / Fold change /veh ID3 (11757404_x_at) / RFU PLEKHG5 (11737974_s_at) / Fold change /veh PLEKHG5 (11737974_s_at) / RFU LRRC4B (11730491_at) / Fold change /veh LRRC4B (11730491_at) / RFU GIMAP4 (11747438_a_at) / Fold change /veh GIMAP4 (11747438_a_at) / RFU KRT8 (11758183_x_at) / Fold change /veh KRT8 (11758183_x_at) / RFU CNN1 (11734310_a_at) / Fold change /veh CNN1 (11734310_a_at) / RFU VPS37D (11726825_at) / Fold change /veh VPS37D (11726825_at) / RFU C10orf10 (11716522_x_at) / Fold change /veh C10orf10 (11716522_x_at) / RFU KIR2DL2 /// KIR2DL4 /// KIR2DL5A /// KIR2DL5B /// KIR2DS1 /// KIR2DS2 /// KIR2DS3 /// KIR2DS4 /// KIR3DL3 /// KIR3DL3 /// KIR3DS1 (11738374_at) / Fold change /veh KIR2DL2 /// KIR2DL4 /// KIR2DL5A /// KIR2DL5B /// KIR2DS1 /// KIR2DS2 /// KIR2DS3 /// KIR2DS4 /// KIR3DL3 /// KIR3DL3 /// KIR3DS1 (11738374_at) / RFU C1QL1 (11718748_at) / Fold change /veh C1QL1 (11718748_at) / RFU TMPRSS4 (11747572_a_at) / Fold change /veh TMPRSS4 (11747572_a_at) / RFU HAMP (11756126_x_at) / Fold change /veh HAMP (11756126_x_at) / RFU RNFT2 (11725882_a_at) / Fold change /veh RNFT2 (11725882_a_at) / RFU NR4A2 (11747474_a_at) / Fold change /veh NR4A2 (11747474_a_at) / RFU ABCC12 (11746883_a_at) / Fold change /veh ABCC12 (11746883_a_at) / RFU TMEM136 (11760407_x_at) / Fold change /veh TMEM136 (11760407_x_at) / RFU CLDN22 /// WWC2 (11732394_at) / Fold change /veh CLDN22 /// WWC2 (11732394_at) / RFU HLA-DPB1 (11760878_x_at) / Fold change /veh HLA-DPB1 (11760878_x_at) / RFU SPINT1 (11716480_a_at) / Fold change /veh SPINT1 (11716480_a_at) / RFU GAP43 (11754022_s_at) / Fold change /veh GAP43 (11754022_s_at) / RFU A4GNT (11735810_at) / Fold change /veh A4GNT (11735810_at) / RFU PRB3 (11715151_x_at) / Fold change /veh PRB3 (11715151_x_at) / RFU TUBB4B (11761932_at) / Fold change /veh TUBB4B (11761932_at) / RFU CAPN14 (11732068_a_at) / Fold change /veh CAPN14 (11732068_a_at) / RFU TMCC2 (11721928_a_at) / Fold change /veh TMCC2 (11721928_a_at) / RFU IRGQ (11745062_a_at) / Fold change /veh IRGQ (11745062_a_at) / RFU FAM174B (11720279_a_at) / Fold change /veh FAM174B (11720279_a_at) / RFU TMPRSS4 (11748680_a_at) / Fold change /veh TMPRSS4 (11748680_a_at) / RFU FAM212B (11763350_a_at) / Fold change /veh FAM212B (11763350_a_at) / RFU PLEKHG5 (11743358_a_at) / Fold change /veh PLEKHG5 (11743358_a_at) / RFU ZSCAN30 (11745921_a_at) / Fold change /veh ZSCAN30 (11745921_a_at) / RFU CMKLR1 (11741424_a_at) / Fold change /veh CMKLR1 (11741424_a_at) / RFU LOC101060620 /// MAPK8IP1 (11723275_at) / Fold change /veh LOC101060620 /// MAPK8IP1 (11723275_at) / RFU SPTSSB (11747773_x_at) / Fold change /veh SPTSSB (11747773_x_at) / RFU PRSS12 (11739890_at) / Fold change /veh PRSS12 (11739890_at) / RFU BIN1 (11741810_x_at) / Fold change /veh BIN1 (11741810_x_at) / RFU WNT11 (11732464_a_at) / Fold change /veh WNT11 (11732464_a_at) / RFU C10orf10 (11716521_a_at) / Fold change /veh C10orf10 (11716521_a_at) / RFU C5orf56 (11738089_at) / Fold change /veh C5orf56 (11738089_at) / RFU CYB561 (11721691_x_at) / Fold change /veh CYB561 (11721691_x_at) / RFU ANKRD19P (11752326_a_at) / Fold change /veh ANKRD19P (11752326_a_at) / RFU OR2T12 /// OR2T33 /// OR2T8 (11738714_s_at) / Fold change /veh OR2T12 /// OR2T33 /// OR2T8 (11738714_s_at) / RFU VCAN (11748164_a_at) / Fold change /veh VCAN (11748164_a_at) / RFU JSRP1 (11732532_at) / Fold change /veh JSRP1 (11732532_at) / RFU KRTAP10-11 (11738290_x_at) / Fold change /veh KRTAP10-11 (11738290_x_at) / RFU MYO3A (11730013_a_at) / Fold change /veh MYO3A (11730013_a_at) / RFU EBF3 (11725865_a_at) / Fold change /veh EBF3 (11725865_a_at) / RFU CAMK2N1 (11719241_x_at) / Fold change /veh CAMK2N1 (11719241_x_at) / RFU C5orf56 (11738088_a_at) / Fold change /veh C5orf56 (11738088_a_at) / RFU OLFML3 (11715873_a_at) / Fold change /veh OLFML3 (11715873_a_at) / RFU LOC100653217 /// NTM (11731650_a_at) / Fold change /veh LOC100653217 /// NTM (11731650_a_at) / RFU MAPK11 (11762145_a_at) / Fold change /veh MAPK11 (11762145_a_at) / RFU FIZ1 (11724087_x_at) / Fold change /veh FIZ1 (11724087_x_at) / RFU OASL (11726364_x_at) / Fold change /veh OASL (11726364_x_at) / RFU SOX15 (11748057_x_at) / Fold change /veh SOX15 (11748057_x_at) / RFU CD79A (11719716_a_at) / Fold change /veh CD79A (11719716_a_at) / RFU HIST1H1D (11736915_at) / Fold change /veh HIST1H1D (11736915_at) / RFU CASKIN2 (11723855_a_at) / Fold change /veh CASKIN2 (11723855_a_at) / RFU LOC730098 (11760151_x_at) / Fold change /veh LOC730098 (11760151_x_at) / RFU OR4N2 (11742367_at) / Fold change /veh OR4N2 (11742367_at) / RFU PRRT2 (11749266_a_at) / Fold change /veh PRRT2 (11749266_a_at) / RFU SNX32 (11753110_a_at) / Fold change /veh SNX32 (11753110_a_at) / RFU CDHR5 (11726645_a_at) / Fold change /veh CDHR5 (11726645_a_at) / RFU RCAN1 (11760418_a_at) / Fold change /veh RCAN1 (11760418_a_at) / RFU FAM167A (11723789_a_at) / Fold change /veh FAM167A (11723789_a_at) / RFU FAM26E (11764081_at) / Fold change /veh FAM26E (11764081_at) / RFU ISYNA1 (11749810_s_at) / Fold change /veh ISYNA1 (11749810_s_at) / RFU ACY1 (11761880_at) / Fold change /veh ACY1 (11761880_at) / RFU 11764098_at / Fold change /veh 11764098_at / RFU SAMD14 (11745864_x_at) / Fold change /veh SAMD14 (11745864_x_at) / RFU NPB (11741838_a_at) / Fold change /veh NPB (11741838_a_at) / RFU TMPRSS6 (11731388_a_at) / Fold change /veh TMPRSS6 (11731388_a_at) / RFU KRTAP10-2 (11738614_at) / Fold change /veh KRTAP10-2 (11738614_at) / RFU ARHGAP8 /// PRR5-ARHGAP8 (11727945_x_at) / Fold change /veh ARHGAP8 /// PRR5-ARHGAP8 (11727945_x_at) / RFU KRTAP5-7 /// NADSYN1 (11734609_at) / Fold change /veh KRTAP5-7 /// NADSYN1 (11734609_at) / RFU RASL12 (11751679_a_at) / Fold change /veh RASL12 (11751679_a_at) / RFU CDKN2B (11736163_a_at) / Fold change /veh CDKN2B (11736163_a_at) / RFU PRF1 (11729649_at) / Fold change /veh PRF1 (11729649_at) / RFU, ZNF638 /// ZNF638-IT1 / Fold change vs veh, ZNF638 /// ZNF638-IT1 / RFU, PANK3 / Fold change vs veh, PANK3 / RFU, SH3YL1 / Fold change vs veh, SH3YL1 / RFU, ZEB2 / Fold change vs veh, ZEB2 / RFU, NRIP1 / Fold change vs veh, NRIP1 / RFU, PTTG1IP / Fold change vs veh, PTTG1IP / RFU, CAPN2 / Fold change vs veh, CAPN2 / RFU, MED14 / Fold change vs veh, MED14 / RFU, SNORA58 / Fold change vs veh, SNORA58 / RFU, C1orf63 / Fold change vs veh, C1orf63 / RFU, LRRFIP1 / Fold change vs veh, LRRFIP1 / RFU, NDUFAF7 / Fold change vs veh, NDUFAF7 / RFU, SLC12A2 / Fold change vs veh, SLC12A2 / RFU, IBTK / Fold change vs veh, IBTK / RFU, ESF1 / Fold change vs veh, ESF1 / Fold change vs veh, TMEM50B / RFU, TAOK1 / Fold change vs veh, TAOK1 / RFU, ACBD3 / Fold change vs veh, ACBD3 / RFU, TMA16 / Fold change vs veh, TMA16 / RFU, RWDD3 / Fold change vs veh, RWDD3 / RFU, BCAT1 / Fold change vs veh, BCAT1 / RFU, EDEM3 / Fold change vs veh, EDEM3 / RFU, TMEM33 / Fold change vs veh, TMEM33 / RFU, WDR75 / Fold change vs veh, WDR75 / RFU, AHCTF1 / Fold change vs veh, AHCTF1 / RFU, TFRC / Fold change vs veh, TFRC / RFU, ZDHHC17 / Fold change vs veh, ZDHHC17 / RFU, NOM1 / Fold change vs veh, NOM1 / RFU, ARL8B / Fold change vs veh, ARL8B / RFU, ZBTB11 / Fold change vs veh, ZBTB11 / RFU, TAMM41 / Fold change vs veh, TAMM41 / RFU, KIAA1704 /// LOC100996395 / Fold change vs veh, KIAA1704 /// LOC100996395 / RFU, ING1 / Fold change vs veh, ING1 / RFU, TRMT61B / Fold change vs veh, TRMT61B / RFU, FUBP3 / Fold change vs veh, FUBP3 / RFU, TP53 / Fold change vs veh, TP53 / RFU, TNKS2 / Fold change vs veh, TNKS2 / RFU, ZFP14 / Fold change vs veh, ZFP14 / RFU, ACTR2 / Fold change vs veh, ACTR2 / RFU, PPP3R1 / Fold change vs veh, PPP3R1 / RFU, PIK3R1 / Fold change vs veh, PIK3R1 / RFU, HNRNPA1 / Fold change vs veh, HNRNPA1 / RFU, RNF170 / Fold change vs veh, RNF170 / RFU, ZNF28 / Fold change vs veh, ZNF28 / RFU, RNGTT / Fold change vs veh, RNGTT / RFU, OGT / Fold change vs veh, OGT / RFU, BRD1 / Fold change vs veh, BRD1 / RFU, MARS / Fold change vs veh, MARS / RFU, ZNF655 / Fold change vs veh, ZNF655 / RFU, FAHD1 / Fold change vs veh, FAHD1 / RFU, BDP1 / Fold change vs veh, BDP1 / RFU, LRRCC1 / Fold change vs veh, LRRCC1 / RFU, ARID1A / Fold change vs veh, ARID1A / RFU, ZNF146 / Fold change vs veh, ZNF146 / RFU, ZNF330 / Fold change vs veh, ZNF330 / RFU, GPN3 / Fold change vs veh, GPN3 / RFU, C9orf123 / Fold change vs veh, C9orf123 / RFU, N4BP2L2 / Fold change vs veh, N4BP2L2 / RFU, ARFIP1 / Fold change vs veh, ARFIP1 / RFU, FAM179B / Fold change vs veh, FAM179B / RFU, BCL10 / Fold change vs veh, BCL10 / RFU, UHRF1BP1L / Fold change vs veh, UHRF1BP1L / RFU, BET1 / Fold change vs veh, BET1 / RFU, CNOT2 / Fold change vs veh, CNOT2 / RFU, ZNF268 / Fold change vs veh, ZNF268 / Fold change vs veh, ZNF507 / RFU, DGCR2 / Fold change vs veh, DGCR2 / RFU, WDSUB1 / Fold change vs veh, WDSUB1 / Fold change vs veh, HSP90B1 /// MIR3652 / RFU, ADSS / Fold change vs veh, ADSS / RFU, GK / Fold change vs veh, GK / RFU, ZNF148 / Fold change vs veh, ZNF148 / RFU, TAF9 / Fold change vs veh, TAF9 / RFU, SLC1A5 / Fold change vs veh, SLC1A5 / RFU, SLMO2 / Fold change vs veh, SLMO2 / RFU, ABCC4 / Fold change vs veh, ABCC4 / RFU, LOC101060439 /// RAP1B / Fold change vs veh, LOC101060439 /// RAP1B / RFU, RFX7 / Fold change vs veh, RFX7 / RFU, GTPBP10 / Fold change vs veh, GTPBP10 / RFU, CNEP1R1 / Fold change vs veh, CNEP1R1 / RFU, BIVM-ERCC5 /// ERCC5 / Fold change vs veh, BIVM-ERCC5 /// ERCC5 / RFU, ILF3 / Fold change vs veh, ILF3 / RFU 11762660_at / Fold change /veh 11762660_at / RFU VCAN (11757783_s_at) / Fold change /veh VCAN (11757783_s_at) / RFU DDX43 (11728927_at) / Fold change /veh DDX43 (11728927_at) / RFU KRT8 (11758188_x_at) / Fold change /veh KRT8 (11758188_x_at) / RFU NKD1 (11759106_at) / Fold change /veh NKD1 (11759106_at) / RFU SRD5A1 (11742802_a_at) / Fold change /veh SRD5A1 (11742802_a_at) / RFU TPSAB1 /// TPSB2 (11721975_s_at) / Fold change /veh TPSAB1 /// TPSB2 (11721975_s_at) / RFU GSTM3 (11746129_a_at) / Fold change /veh GSTM3 (11746129_a_at) / RFU IL23R (11737362_x_at) / Fold change /veh IL23R (11737362_x_at) / RFU TMEM51 (11727254_a_at) / Fold change /veh TMEM51 (11727254_a_at) / RFU PIWIL2 (11732686_x_at) / Fold change /veh PIWIL2 (11732686_x_at) / RFU ORM1 (11744905_x_at) / Fold change /veh ORM1 (11744905_x_at) / RFU CCDC152 (11743942_at) / Fold change /veh CCDC152 (11743942_at) / RFU ECM1 (11717891_a_at) / Fold change /veh ECM1 (11717891_a_at) / RFU IL23R (11748794_a_at) / Fold change /veh IL23R (11748794_a_at) / RFU TNFAIP8L3 (11732012_x_at) / Fold change /veh TNFAIP8L3 (11732012_x_at) / RFU MBOAT4 (11741988_at) / Fold change /veh MBOAT4 (11741988_at) / RFU 11764193_at / Fold change /veh 11764193_at / RFU TMEM53 (11763286_at) / Fold change /veh TMEM53 (11763286_at) / RFU MAGEB2 (11727129_at) / Fold change /veh MAGEB2 (11727129_at) / RFU TMEM200A (11744735_a_at) / Fold change /veh TMEM200A (11744735_a_at) / RFU CCDC152 (11751479_a_at) / Fold change /veh CCDC152 (11751479_a_at) / RFU FAM211A (11726209_a_at) / Fold change /veh FAM211A (11726209_a_at) / RFU RGS16 (11746705_a_at) / Fold change /veh RGS16 (11746705_a_at) / RFU VCAN (11755009_s_at) / Fold change /veh VCAN (11755009_s_at) / RFU RHOB (11743442_s_at) / Fold change /veh RHOB (11743442_s_at) / RFU RGS16 (11720943_a_at) / Fold change /veh RGS16 (11720943_a_at) / RFU RGS16 (11720944_at) / Fold change /veh RGS16 (11720944_at) / RFU, VPS4B / Fold change vs veh, VPS4B / RFU, CREB1 / Fold change vs veh, CREB1 / RFU, DNAJC13 / Fold change vs veh, DNAJC13 / RFU, GNAQ / Fold change vs veh, GNAQ / RFU, CDK5R1 / Fold change vs veh, CDK5R1 / RFU, ZRANB3 / Fold change vs veh, ZRANB3 / RFU, CUL4A / Fold change vs veh, CUL4A / RFU, CCNY / Fold change vs veh, CCNY / RFU, UFL1 / Fold change vs veh, UFL1 / RFU, COG3 / Fold change vs veh, COG3 / RFU, DIAPH2 / Fold change vs veh, DIAPH2 / RFU, SKA2 / Fold change vs veh, SKA2 / RFU, AFF3 / Fold change vs veh, AFF3 / RFU, LMF1 / Fold change vs veh, LMF1 / RFU, IPO11 / Fold change vs veh, IPO11 / RFU, DFFB / Fold change vs veh, DFFB / RFU, FOXP1 / Fold change vs veh, FOXP1 / RFU, CARD8 / Fold change vs veh, CARD8 / RFU, STRN3 / Fold change vs veh, STRN3 / RFU, ADK / Fold change vs veh, ADK / RFU, RASSF2 / Fold change vs veh, RASSF2 / RFU, WIPF1 / Fold change vs veh, WIPF1 / RFU, LARP1B / Fold change vs veh, LARP1B / RFU, RASA1 / Fold change vs veh, RASA1 / RFU, RB1 / Fold change vs veh, RB1 / RFU, PPFIA1 / Fold change vs veh, PPFIA1 / RFU, MAT2A / Fold change vs veh, MAT2A / RFU, CCT5 / Fold change vs veh, CCT5 / RFU, WDR92 / Fold change vs veh, WDR92 / RFU, CUX1 / Fold change vs veh, CUX1 / RFU, TTC7A / Fold change vs veh, TTC7A / RFU, TMEM135 / Fold change vs veh, TMEM135 / RFU, DEPTOR / Fold change vs veh, DEPTOR / RFU, CPM / Fold change vs veh, CPM / RFU, DNAJB6 / Fold change vs veh, DNAJB6 / RFU, CACNA2D3 / Fold change vs veh, CACNA2D3 / RFU, DTX4 / Fold change vs veh, DTX4 / RFU, TFCP2 / Fold change vs veh, TFCP2 / RFU, GMCL1 /// GMCL1P1 / Fold change vs veh, GMCL1 /// GMCL1P1 / RFU, AEBP2 / Fold change vs veh, AEBP2 / RFU, SNHG1 /// SNORD22 /// SNORD25 /// SNORD26 /// SNORD27 /// SNORD28 /// SNORD29 /// SNORD31 / Fold change vs veh, SNHG1 /// SNORD22 /// SNORD25 /// SNORD26 /// SNORD27 /// SNORD28 /// SNORD29 /// SNORD31 / Fold change (Aza/veh), C12orf56 (ProbeSet 11735607_a_at) / Fold change (ACY-1035/veh), C12orf56 (ProbeSet 11735607_a_at) / Fold change (Aza/veh), FGFR1OP (ProbeSet 11751329_s_at) / Fold change (ACY-1035/veh), FGFR1OP (ProbeSet 11751329_s_at) / Fold change (Aza/veh), VPS36 (ProbeSet 11739960_a_at) / Fold change (ACY-1035/veh), VPS36 (ProbeSet 11739960_a_at) / RFU SYPL1 (11715823_x_at) / Fold change /veh SYPL1 (11715823_x_at) / RFU IGFBP7 (11715501_s_at) / Fold change /veh IGFBP7 (11715501_s_at) / RFU REEP3 (11722064_at) / Fold change /veh REEP3 (11722064_at) / RFU IGLL1 (11728026_x_at) / Fold change /veh IGLL1 (11728026_x_at): dose or concentration left out as unconfirmed", "details": "MV-4-11 cells, 48 hours"}
{"smiles": "Nc1ncn([C@@H]2O[C@H](CO)[C@@H](O)[C@H]2O)c(=O)n1", "note": "[azacitidine]", "values": [{"measurement": "RFU PIWIL2 (11732686_x_at)", "result": 15.01, "unit": "RFU"}]}
